# Target: Recombinant human KIF18A (1-467 His-tagged) protein (Homo sapiens (Human), UniProt Q8NI77)
# Assay: KIF18A Enzyme Assay: microtubule-stimulated ATPase activity (ADP-Glo)
# Conditions: read-out: KIF18A ATPase IC50; 30 nM KIF18A, 30 μg/mL pig microtubules, ATP at Km 75 μM, ADP-Glo luminescence
# Excerpt: KIF18A Enzyme Assay: Microtubule-stimulated ATPase activity assay is used to measure KIF18A enzyme activity after treatment with compound. Compounds were 2-fold serially diluted in DMSO (Sigma Inc) over 22-point concentration range. […] The assay measures ADP formed from the ATPase reaction.
# Sequence of Recombinant human KIF18A (1-467 His-tagged) protein (Q8NI77 1-467): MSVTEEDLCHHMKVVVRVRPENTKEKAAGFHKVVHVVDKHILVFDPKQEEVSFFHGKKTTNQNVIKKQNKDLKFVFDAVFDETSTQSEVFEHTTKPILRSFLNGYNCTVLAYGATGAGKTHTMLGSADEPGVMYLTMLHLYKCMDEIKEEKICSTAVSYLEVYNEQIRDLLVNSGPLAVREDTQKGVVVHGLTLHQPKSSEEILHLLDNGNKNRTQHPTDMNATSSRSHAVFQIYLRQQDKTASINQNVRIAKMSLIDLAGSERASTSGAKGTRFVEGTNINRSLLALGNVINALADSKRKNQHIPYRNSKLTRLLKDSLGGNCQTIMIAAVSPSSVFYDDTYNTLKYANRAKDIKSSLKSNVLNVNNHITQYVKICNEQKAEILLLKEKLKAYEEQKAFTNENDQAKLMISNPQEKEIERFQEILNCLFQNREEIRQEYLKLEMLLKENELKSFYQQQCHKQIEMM
# Sequence of Recombinant human KIF18A (1-467 His-tagged) protein (P02550 whole entry partner): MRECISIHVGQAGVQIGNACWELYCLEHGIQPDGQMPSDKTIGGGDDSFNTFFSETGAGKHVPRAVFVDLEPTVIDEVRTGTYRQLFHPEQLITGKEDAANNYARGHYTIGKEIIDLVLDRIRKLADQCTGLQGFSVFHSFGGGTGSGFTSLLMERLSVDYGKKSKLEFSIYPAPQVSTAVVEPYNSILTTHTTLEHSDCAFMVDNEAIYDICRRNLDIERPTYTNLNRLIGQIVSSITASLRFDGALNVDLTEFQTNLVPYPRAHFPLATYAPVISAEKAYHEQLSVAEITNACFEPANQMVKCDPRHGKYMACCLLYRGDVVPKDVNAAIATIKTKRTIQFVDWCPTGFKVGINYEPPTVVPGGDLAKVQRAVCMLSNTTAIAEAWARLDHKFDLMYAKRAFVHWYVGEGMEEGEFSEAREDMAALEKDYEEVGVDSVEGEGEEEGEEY
# Sequence of Recombinant human KIF18A (1-467 His-tagged) protein (P02554 whole entry partner): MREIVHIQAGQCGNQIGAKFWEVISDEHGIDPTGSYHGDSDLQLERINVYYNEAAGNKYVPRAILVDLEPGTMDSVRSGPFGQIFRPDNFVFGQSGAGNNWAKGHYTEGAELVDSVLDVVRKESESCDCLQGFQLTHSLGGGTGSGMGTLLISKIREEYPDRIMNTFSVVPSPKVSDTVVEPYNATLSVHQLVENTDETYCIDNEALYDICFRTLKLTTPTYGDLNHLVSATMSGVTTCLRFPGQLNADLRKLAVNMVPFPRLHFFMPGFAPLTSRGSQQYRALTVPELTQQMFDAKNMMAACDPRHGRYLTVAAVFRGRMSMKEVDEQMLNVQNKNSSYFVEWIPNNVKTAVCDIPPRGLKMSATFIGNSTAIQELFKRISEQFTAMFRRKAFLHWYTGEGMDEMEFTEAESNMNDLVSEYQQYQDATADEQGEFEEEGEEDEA
row,Compound,IC50 [nM]
1,"Cc1cc(NC(=O)c2ccc(NS(=O)(=O)CCO)cc2N2CCC3(CC2)CC3)nc(N2CC(OC(F)F)C2)n1 [Example 11-10, N-(2-(3-(Difluoromethoxy)azetidin-1-yl)-6-methylpyrimidin-4-yl)-4-((2-hydroxyethyl)sulfonamido)-2-(6-azaspiro[2.5]octan-6-yl)benzamide]",192
2,"Cc1cc(NC(=O)c2ccc([S@](=N)(=O)C3CC3)cc2N2CCC3(CC2)CC3)nc(N2CCO[C@H](C)C2)n1 [Example 19-7, 2-(6-Azaspiro[2.5]octan-6-yl)-4-(S-cyclopropylsulfonimidoyl)-N-(6-methy-2-((2R)-2-methyl-4-moprpholinyl)-4-pyrimidinyl)benzamide]",195
3,"Cc1cc(NC(=O)c2ccc(NS(=O)(=O)C(C)C)cc2N2CCC3(CC2)CC3)nc(N2CCC(F)(F)CC2)n1 [Example 6-22, N-(2-(4,4-Difluoropiperidin-1-yl)-6-methylpyrimidin-4-yl)-4-((1-methylethyl)sulfonamido)-2-(6-azaspiro[2.5]octan-6-yl)benzamide]",151
4,"CCS(=O)(=O)Nc1ccc(C(=O)Nc2cc(C)nc(N3CCC(F)(F)CC3)n2)c(N2CCC3(CC2)CC3)c1 [Example 6-7, N-(2-(4,4-Difluoropiperidin-1-yl)-6-methylpyrimidin-4-yl)-4-(ethylsulfonamido)-2-(6-azaspiro[2.5]octan-6-yl)benzamide]",122
5,"Cc1cc(NC(=O)c2ccc(S(=O)(=O)C(C)(C)C)cc2N2CCC3(CC2)CC3)nc(N2CCC(F)(F)CC2)n1 [Example 14-6, 4-(tert-Butylsulfonyl)-N-(2-(4,4-difluoropiperidin-1-yl)-6-methylpyrimidin-4-yl)-2-(6-azaspiro[2.5]octan-6-yl)benzamide]",1880
6,"Cc1cc(NC(=O)c2ccc(S(=O)(=O)NCC(C)(C)O)cc2N2CCC3(CC2)CC3)nc(N2CCC(F)(F)CC2)n1 [Example 17-8, N-(2-(4,4-Difluoropiperidin-1-yl)-6-methylpyrimidin-4-yl)-4-(N-(2-hydroxy-2-methylpropyl)sulfamoyl)-2-(6-azaspiro[2.5]octan-6-yl)benzamide]",286
7,"C[C@H](O)CS(=O)(=O)Nc1ccc(C(=O)Nc2ccnc(N3CCO[C@H](C)C3)n2)c(N2CCC3(CC2)CC3)c1 [Example 6-33-1, 4-(((S)-2-Hydroxypropyl)sulfonamido)-N-(2-((R)-2-methylmorpholino)pyrimidin-4-yl)-2-(6-azaspiro[2.5]octan-6-yl)benzamide]",115
8,"Cc1cc(NC(=O)c2ccc(NS(=O)(=O)CCO)cc2N2CCC3(CC2)CC3)nc(N2CC(C(C)(C)O)C2)n1 [Example 11-14, 4-((2-Hydroxyethyl)sulfonamido)-N-(2-(3-(2-hydroxypropan-2-yl)azetidin-1-yl)-6-methylpyrimidin-4-yl)-2-(6-azaspiro[2.5]octan-6-yl)benzamide]",172
9,"Cc1cc(NC(=O)c2ccc(S(=O)(=O)NC3(C)COC3)cc2N2CCC3(CC2)CC3)nc(N2CCO[C@H](C)C2)n1 [Example 2-3, (R)-N-(6-Methyl-2-(2-methylmorpholino)pyrimidin-4-yl)-4-(N-(3-methyloxetan-3-yl)sulfamoyl)-2-(6-azaspiro[2.5]octan-6-yl)benzamide]",115
10,"C[C@@H]1CN(c2nc(NC(=O)c3ccc(NS(=O)(=O)CCO)cc3N3CCC4(CC3)CC4)cc(C(C)(C)O)n2)CCO1 [Example 6-40, (R)-4-((2-Hydroxyethyl)sulfonamido)-N-(6-(2-hydroxypropan-2-yl)-2-(2-methylmorpholino)pyrimidin-4-yl)-2-(6-azaspiro[2.5]octan-6-yl)benzamide]",161
11,"Cc1cc(NC(=O)c2c(F)cc(NS(=O)(=O)CCO)cc2N2CCC3(CC2)CC3)nc(N2CCC(F)(F)CC2)n1 [Example 11-58, N-(2-(4,4-Difluoropiperidin-1-yl)-6-methylpyrimidin-4-yl)-2-fluoro-4-((2-hydroxyethyl)sulfonamido)-6-(6-azaspiro[2.5]octan-6-yl)benzamide]",71
12,"Cc1cc(NC(=O)c2ccc(S(C)(=O)=O)cc2N2CCC3(CC2)CC3)nc(NCCO)n1 [Example 1-3, N-(2-((2-Hydroxyethyl)amino)-6-methylpyrimidin-4-yl)-4-(methylsulfonyl)-2-(6-azaspiro[2.5]octan-6-yl)benzamide]",849
13,"Cc1cc(NC(=O)c2ccc(NS(=O)(=O)CCO)cc2N2CCC3(CC2)CC3)nc(N2CC(C(F)(F)F)C2)n1 [Example 11-12, 4-((2-Hydroxyethyl)sulfonamido)-N-(6-methyl-2-(3-(trifluoromethyl)azetidin-1-yl)pyrimidin-4-yl)-2-(6-azaspiro[2.5]octan-6-yl)benzamide]",93

# Now those with a lower IC50, led by results:
row,IC50 [nM],Compound
1,20,"Cc1cc(NC(=O)c2ccc(NS(=O)(=O)CCO)cc2N2CCC3(CC2)CC3)nc(N2CCC(F)CC2)n1 [Example 11-51, N-(2-(4-Fluoropiperidin-1-yl)-6-methylpyrimidin-4-yl)-4-((2-hydroxyethyl)sulfonamido)-2-(6-azaspiro[2.5]octan-6-yl)benzamide]"
2,60,"CCc1cc(NC(=O)c2ccc(NS(=O)(=O)CCO)cc2N2CCC3(CC2)CC3)nc(N2CCC(F)(F)CC2)n1 [Example 6-38, N-(2-(4,4-Difluoropiperidin-1-yl)-6-ethylpyrimidin-4-yl)-4-((2-hydroxyethyl)sulfonamido)-2-(6-azaspiro[2.5]octan-6-yl)benzamide]"
3,68,"O=C(Nc1ccnc(N2CC(F)C2)n1)c1ccc(NS(=O)(=O)CCO)cc1N1CCC2(CC1)CC2 [Example 11-6, N-(2-(3-Fluoroazetidin-1-yl)pyrimidin-4-yl)-4-((2-hydroxyethyl)sulfonamido)-2-(6-azaspiro[2.5]octan-6-yl)benzamide]"
4,65,"Cc1cc(NC(=O)c2ccc(NS(=O)(=O)CCO)cc2N2CCC3(CC2)CC3)nc(N2CCC(C)(O)CC2)n1 [Example 11-38, N-(2-(4-Hydroxy-4-methylpiperidin-1-yl)-6-methylpyrimidin-4-yl)-4-((2-hydroxyethyl)sulfonamido)-2-(6-azaspiro[2.5]octan-6-yl)benzamide]"
5,47,"Cc1cc(NC(=O)c2ccc(NS(=O)(=O)[C@@H](C)CO)cc2N2CCC3(CC2)CC3)nc(N2CCC(F)CC2)n1 [Example 6-25-1, (S)-N-(2-(4-fluoropiperidin-1-yl)-6-methylpyrimidin-4-yl)-4-((2-hydroxy-1-methylethyl)sulfonamido)-2-(6-azaspiro[2.5]octan-6-yl)benzamide]"
6,34,"Cc1cc(NC(=O)c2cc(F)c(NS(=O)(=O)CCO)cc2N2CCC3(CC2)CC3)nc(N2CCC(F)(F)CC2)n1 [Example 11-67, N-(2-(4,4-Difluoropiperidin-1-yl)-6-methylpyrimidin-4-yl)-5-fluoro-4-((2-hydroxyethyl)sulfonamido)-2-(6-azaspiro[2.5]octan-6-yl)benzamide]"
7,27,"Cc1cc(NC(=O)c2ccc(NS(=O)(=O)CCO)cc2N2CCC3(CC2)CC3)nc(C(C)C)n1 [Example 11-2, 4-((2-Hydroxyethyl)sulfonamido)-N-(2-isopropyl-6-methylpyrimidin-4-yl)-2-(6-azaspiro[2.5]octan-6-yl)benzamide]"
8,52,"Cc1cc(NC(=O)c2ccc(NS(=O)(=O)C3CCC3)cc2N2CCC3(CC2)CC3)nc(N2CC(F)(F)C2)n1 [Example 6-13, 4-(Cyclobutanesulfonamido)-N-(2-(3,3-difluoroazetidin-1-yl)-6-methylpyrimidin-4-yl)-2-(6-azaspiro[2.5]octan-6-yl)benzamide]"

# Source: patent publication US11236069B2, “KIF18A inhibitors” (AMGEN INC., priority 2018, dated 2022)
